{"source": "patent US6376666B1", "about": "(Nauchno-Issledovatelsky Institut Farmakologii Rossiiskoi …, priority 1994, dated 2002)", "key": {"cats": {"system": "cats", "experiment": "hemodynamics and activity of intact heart in cats under anesthesia", "assay_type": "in vivo", "method": "The effects of compounds on the hemodynamics and activity of intact heart were studied in cats under anesthesia. The experiments were carried out under conditions of open chest. The phase curve of aortic blood flow was the main index of cardiac activity. The compounds were administered i.v. in physiological solution. The t-Student' test was used to estimate the statistical significance."}, "[1]": {"system": "calcium chloride arrhythmia", "experiment": "calcium chloride arrhythmia in concious rats", "assay_type": "in vivo", "conditions": "concious rats, given 2 min prior calcium chloride 250-300 mg/kg i.v.; for ED50: Rattus norvegicus, iv, read-out: Calcium chloride arrhythmia ED50 (mean effective dose)", "method": "In these experiments the outbred concious rats 180-200 g of weight were injected with 10% solution of calcium chloride in tail vein at dose range of 250-300 mg/kg."}, "adrenaline arrhythmia": {"system": "adrenaline arrhythmia", "experiment": "adrenaline arrhythmia in concious rabbits", "conditions": "given 2 min before arrhythmogenic dose of adrenaline", "quoted_text": "Adrenaline arrhythmia. The 0,1% solution of adrenaline hydrochloride was injected to the marginal ear's vein of rabbit weighing 2,5-3,0 kg at dose ranging 120-150 mcg/kg which induced cardiac rhythm disturbances of two types.\nThe tested compound was injected in 3 ml of distilled water 30 min after determination of arrhythmogenic dose of adrenaline and the ECG was recorded in 2nd standard lead. 2 min after administration of tested compound the arrhythmogenic dose of adrenaline was injected."}, "aconitine arrhythmia": {"system": "aconitine arrhythmia", "experiment": "animal or person", "assay_type": "in vivo, rats", "conditions": "for LD50/ED50 (antiarrhythmic index): LD50 i.v. / ED50 aconitine arrhythmia; for ED50: Rattus norvegicus, iv, read-out: Aconitine arrhythmia ED50; for Aconitine arrhythmia ED50: concious rats, i.v. 3 min prior aconitine", "method": "Aconitine arrhythmia. The aconitine arrhythmia was induced in concious rats weighing 180-200 g by the injection in tail vein of the aconitine sulfate solution at dose range of […]. […] The tested compounds were administered i.v. 3 min prior aconitine injection. The ED50 value was calculated according to Litchfield's method."}, "in vivo": {"experiment": "in vivo", "conditions": "iv"}, "[2]": {"conditions": "after i.v. injection"}, "[3]": {"system": "ventricular fibrillations", "experiment": "ventricular fibrillation, 7-min occlusion and reperfusion of coronary artery in anesthetized rats", "assay_type": "in vivo", "method": "The experiments were conducted in male rats weighing 180-240 g and anesthetized with nembutal (60 mg/kg i.v.) with open chest and artificial respiration. The occlusion of the left coronary artery was performed 1-2 min after experiment beginning with following reperfusion after 7 min. During this period time according to literature data [Krzeminski T., Grzyb J., Kurcok A., Brus R.: Pol.J.Pharmacol., 1992, 44, Suppl., p.169-170] the maximum number of ventricular fibrillations (70-100%) were registered. The ECG in the 2nd standard lead was recorded in “Mingograph-81”. The number of ventricular fibrillations during occlusion and reperfusion periods, the life menacing arrhythmia (fibrillation+paroxysmal ventricular tachycardia) and total number of arrhythmias were calculated. The known antiarrhythmic drug bonnecor was used as the reference agent [Grigorieva E. K., Gorbunova V. V. in: “New antiarrhythmic drug—bonnecor (the pharmacology and clinical usage)”, M., 1993, p.64-67]. The compounds were injected i.v. at the following doses: bonnecor—1,0 mg/kg, compound IX—2,0 mg/kg, compound XX—1,0 mg/kg. The control animals were administered with the equivalent volume of physiological solution (1,0 ml/kg). 4 series of experiments were carried out in 80 rats. The results were assessed according to the method of point scale: the absence of arrhythmia—0 point, extrasystole—1 point, paroxysmal ventricular tachycardia—2 points, ventricular fibrillation—3 points, fibrillation observed during the occlusion of coronary vessel—4 points. For statistical analysis the Fisher's exact probability and Wilconson's methods were used.\n[Krzeminski T., Grzyb J., Kurcok A., Brus R.: Pol.J.Pharmacol., 1992, 44, Suppl., p.169-170] have shown that 7 min occlusion with following reperfusion of coronary artery in anesthetized rats produced the ventricular fibrillation (68-100%). Defibrotide and prostacycline decreased the number of fibrillations. We have studied the antifibrillator activity of some derivatives of 2-mercaptbenzimidazole in this model with disturbances of heart rhythm. Bonnecor (1,0 mg/kg) was used as the reference drug. It is well known that this agent produces apronouncedantifibrillatoryactivity [Grigorieva E. K., Gorbunova V. V. in: “New antiarrhythmic drug-bonnecor (the pharmacology and clinical usage)”, M., 1993, p.64-67]."}, "[4]": {"conditions": "0.5 mg/kg i.v., 0.25 min after injection"}, "[5]": {"conditions": "cats, 0.5 mg/kg i.v., after 2 min"}, "[6]": {"conditions": "cats, 0.5 mg/kg i.v., after 5 min"}, "[7]": {"conditions": "cats, 0.5 mg/kg i.v., after 10 min"}, "[8]": {"conditions": "cats, 0.5 mg/kg i.v., after 20 min"}, "[9]": {"conditions": "cats, 0.5 mg/kg i.v., after 30 min"}}, "note": "Marks after values point to notes of the source that are not given here.", "data": [{"smiles": "COc1ccc(CCN(C)CCCC(C#N)(c2ccc(OC)c(OC)c2)C(C)C)cc1OC", "note": "(stereo not shown) [Verapamil, verapamil, reference compound]", "values": [{"measurement": "Heart rate, change from basal level", "setting": "cats; [4]", "value": "−13.7 ± 1.7", "unit": "%"}, {"measurement": "Mean blood flow accelaration, change from basal level", "setting": "cats; [4]", "value": "−32.5 ± 5.7", "unit": "%"}, {"measurement": "Mean blood pressure, change from basal level", "setting": "cats; [4]", "value": "−40.4 ± 7.0", "unit": "%"}, {"measurement": "effect on heart rate, in words", "setting": "cats; cats i.v., VIII 1,0, IX 0,5 and 1,0, XX 1,0 and 2,0 mg/kg, XXIII 1.0, verapamil 0.5 mg/kg", "value": "induced the bradycardia"}, {"measurement": "Heart rate, change from basal level", "setting": "cats; [5]", "value": "−11.8 ± 2.0", "unit": "%"}, {"measurement": "Mean blood flow accelaration (aortic), change from basal level", "setting": "cats; [5]", "value": "−15.5 ± 2.4", "unit": "%"}, {"measurement": "Mean blood pressure, change from basal level", "setting": "cats; [5]", "value": "−22.7 ± 8.1", "unit": "%"}, {"measurement": "Heart rate, change from basal level", "setting": "cats; [6]", "value": "−12.3 ± 3.0", "unit": "%"}, {"measurement": "Mean blood flow accelaration (aortic), change from basal level", "setting": "cats; [6]", "value": "−8.1 ± 3.0", "unit": "%"}, {"measurement": "Mean blood pressure, change from basal level", "setting": "cats; [6]", "value": "−8.7 ± 6.3", "unit": "%"}, {"measurement": "Heart rate, change from basal level", "setting": "cats; [7]", "value": "−8.1 ± 2.0", "unit": "%"}, {"measurement": "Mean blood flow accelaration (aortic), change from basal level", "setting": "cats; [7]", "value": "−9.9 ± 2.5", "unit": "%"}, {"measurement": "Mean blood pressure, change from basal level", "setting": "cats; [7]", "value": "−2.4 ± 2.6", "unit": "%"}, {"measurement": "Heart rate, change from basal level", "setting": "cats; [8]", "value": "−5.4 ± 2.0", "unit": "%"}, {"measurement": "Mean blood flow accelaration (aortic), change from basal level", "setting": "cats; [8]", "value": "−8.7 ± 3.0", "unit": "%"}, {"measurement": "Mean blood pressure, change from basal level", "setting": "cats; [8]", "value": "−8.5 ± 6.6", "unit": "%"}, {"measurement": "Heart rate, change from basal level", "setting": "cats; [9]", "value": "−4.6 ± 3.4", "unit": "%"}, {"measurement": "Mean blood flow accelaration (aortic), change from basal level", "setting": "cats; [9]", "value": "−7.0 ± 4.2", "unit": "%"}, {"measurement": "Mean blood pressure, change from basal level", "setting": "cats; [9]", "value": "−11.6 ± 7.0", "unit": "%"}, {"measurement": "ED50", "setting": "[1]", "value": 1.1, "unit": "mg/kg"}, {"measurement": "Adrenaline arrhythmia. Range of active doses", "setting": "adrenaline arrhythmia", "value": "0.3 to 1.0", "unit": "mg/kg"}]}, {"smiles": "CCN(CC)CCNC(=O)c1ccc(N)cc1", "note": "[Novocainamide, novocainamide, reference compound]", "values": [{"measurement": "ED50", "setting": "[1]", "value": 50, "unit": "mg/kg"}, {"measurement": "LD50/ED50 (antiarrhythmic index)", "setting": "aconitine arrhythmia", "value": 2.7}, {"measurement": "ED50", "setting": "aconitine arrhythmia", "value": 41, "unit": "mg/kg"}, {"measurement": "LD50", "setting": "in vivo", "value": 110, "unit": "mg/kg"}]}, {"smiles": "CCN(CC)CC(=O)Nc1c(C)cccc1C", "note": "[Lidocaine, lidocaine]", "values": [{"measurement": "ED50", "setting": "[1]", "value": 7.5, "unit": "mg/kg"}, {"measurement": "ED50", "setting": "aconitine arrhythmia", "value": 7.8, "unit": "mg/kg"}, {"measurement": "Adrenaline arrhythmia. Range of active doses", "setting": "adrenaline arrhythmia", "value": "5.0 to 8.0", "unit": "mg/kg"}]}, {"smiles": "CCOC(=O)Nc1ccc2c(c1)N(C(=O)CCN1CCOCC1)c1ccccc1S2", "note": "[Etmosin]", "values": [{"measurement": "LD50/ED50 (antiarrhythmic index)", "setting": "aconitine arrhythmia", "value": 58.6}, {"measurement": "Aconitine arrhythmia ED50", "setting": "aconitine arrhythmia", "value": 0.28, "unit": "mg/kg"}, {"measurement": "Acute toxicity LD50", "setting": "[2]", "value": 16.4, "unit": "mg/kg"}]}, {"smiles": "CCOC(=O)Nc1ccc2c(c1)N(C(=O)CN(C)C)c1ccccc1CC2", "note": "[Bonnecor, bonnecor, reference compound]", "values": [{"measurement": "Calcium chloride arrhythmia ED50 (mean effective dose)", "setting": "[1]", "value": 1.6, "unit": "mg/kg"}, {"measurement": "LD50/ED50 (antiarrhythmic index)", "setting": "aconitine arrhythmia", "value": 50}, {"measurement": "Aconitine arrhythmia ED50", "setting": "aconitine arrhythmia", "value": 0.23, "unit": "mg/kg"}, {"measurement": "antifibrillatory effect, in words", "setting": "[3]; anesthetized rats i.v., bonnecor 1,0, IX 2,0, X (printed) 1,0 mg/kg", "value": "decreased the number of both the ventricular fibrillations and lethality hazardous arrhythmia"}, {"measurement": "Number of VF (ventricular fibrillations)", "setting": "[3]; anesthetized rats, 1 mg/kg i.v., 18 animals, control 15 of 24", "value": "6*"}, {"measurement": "Number of LHA (lethality hazardous arrhythmia)", "setting": "[3]; anesthetized rats, 1 mg/kg i.v., 18 animals, control 22 of 24", "value": "12*"}, {"measurement": "Total numbers of arrhyt.", "setting": "[3]; anesthetized rats, 1 mg/kg i.v., 18 animals, control 24 of 24", "value": 16}, {"measurement": "Severity of arrhythmias", "setting": "[3]; anesthetized rats, 1 mg/kg i.v., 18 animals, control 66", "value": "36* points"}, {"measurement": "Acute toxicity LD50", "setting": "[2]", "value": 11.5, "unit": "mg/kg"}]}]}
